Laboratory results as given in ChEMBL document CHEMBL4229543, “Squaramides as novel class I and IIB histone deacetylase inhibitors for topical treatment of cutaneous t-cell lymphoma” (Bioorg Med Chem Lett, 2018).
In brackets after ≈: the same amount, converted by molar mass.

Tests used:
[1] = molecular target: T1, NAD-dependent protein deacetylase sirtuin-1 (Homo sapiens, UniProt Q96EB6); test: Inhibition of human recombinant SIRT1 using fluorogenic HDAC substrate after 20 mins by fluorimetrc method
T1 sequence (Q96EB6 whole entry): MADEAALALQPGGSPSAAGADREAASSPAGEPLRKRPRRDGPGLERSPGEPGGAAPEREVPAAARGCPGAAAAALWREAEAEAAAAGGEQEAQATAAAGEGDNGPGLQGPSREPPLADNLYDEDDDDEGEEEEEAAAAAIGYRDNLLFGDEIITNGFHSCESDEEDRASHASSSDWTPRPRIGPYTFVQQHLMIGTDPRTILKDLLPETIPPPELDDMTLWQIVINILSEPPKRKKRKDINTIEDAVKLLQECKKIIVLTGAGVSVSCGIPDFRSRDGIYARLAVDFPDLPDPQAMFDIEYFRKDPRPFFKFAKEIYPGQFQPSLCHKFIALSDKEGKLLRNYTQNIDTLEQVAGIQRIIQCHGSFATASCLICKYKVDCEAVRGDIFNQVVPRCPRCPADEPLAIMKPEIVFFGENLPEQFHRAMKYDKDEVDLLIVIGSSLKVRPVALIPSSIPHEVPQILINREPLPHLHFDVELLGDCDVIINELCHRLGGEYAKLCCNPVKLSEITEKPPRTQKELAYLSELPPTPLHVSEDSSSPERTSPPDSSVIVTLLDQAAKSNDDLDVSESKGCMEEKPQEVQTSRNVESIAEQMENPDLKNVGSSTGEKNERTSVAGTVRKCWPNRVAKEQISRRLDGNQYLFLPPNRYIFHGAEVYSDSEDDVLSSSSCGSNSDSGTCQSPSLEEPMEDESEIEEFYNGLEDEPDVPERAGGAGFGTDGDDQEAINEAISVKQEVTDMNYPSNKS

[2] = Solubility in pH 7.4 phosphate buffer solution at 100 uM after 24 hrs by HPLC method; assay type: physicochemical; details: phosphate buffer, pH 7.4
Histone deacetylase 2 = Histone deacetylase 2 (Homo sapiens, UniProt Q92769); test: Inhibition of human recombinant HDAC2 using fluorogenic HDAC substrate after 15 mins by fluorimetrc method
Sequence of Histone deacetylase 2 (Q92769 whole entry): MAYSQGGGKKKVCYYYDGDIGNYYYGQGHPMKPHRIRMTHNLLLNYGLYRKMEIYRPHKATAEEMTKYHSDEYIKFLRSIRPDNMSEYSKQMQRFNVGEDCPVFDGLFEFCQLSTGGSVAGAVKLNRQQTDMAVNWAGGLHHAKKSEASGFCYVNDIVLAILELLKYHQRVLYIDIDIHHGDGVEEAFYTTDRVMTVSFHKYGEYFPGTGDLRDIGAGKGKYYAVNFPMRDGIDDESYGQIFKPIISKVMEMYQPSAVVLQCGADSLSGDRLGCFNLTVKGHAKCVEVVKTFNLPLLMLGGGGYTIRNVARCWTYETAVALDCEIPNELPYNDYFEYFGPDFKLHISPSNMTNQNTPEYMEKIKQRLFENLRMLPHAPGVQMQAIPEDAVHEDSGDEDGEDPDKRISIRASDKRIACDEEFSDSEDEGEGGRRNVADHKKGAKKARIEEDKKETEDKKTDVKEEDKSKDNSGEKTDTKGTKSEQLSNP

Histone deacetylase 9 = Histone deacetylase 9 (Homo sapiens, UniProt Q9UKV0); test: Inhibition of human recombinant HDAC9 using fluorogenic HDAC substrate class 2a after 30 mins by fluorimetrc method
Sequence of Histone deacetylase 9 (Q9UKV0 whole entry): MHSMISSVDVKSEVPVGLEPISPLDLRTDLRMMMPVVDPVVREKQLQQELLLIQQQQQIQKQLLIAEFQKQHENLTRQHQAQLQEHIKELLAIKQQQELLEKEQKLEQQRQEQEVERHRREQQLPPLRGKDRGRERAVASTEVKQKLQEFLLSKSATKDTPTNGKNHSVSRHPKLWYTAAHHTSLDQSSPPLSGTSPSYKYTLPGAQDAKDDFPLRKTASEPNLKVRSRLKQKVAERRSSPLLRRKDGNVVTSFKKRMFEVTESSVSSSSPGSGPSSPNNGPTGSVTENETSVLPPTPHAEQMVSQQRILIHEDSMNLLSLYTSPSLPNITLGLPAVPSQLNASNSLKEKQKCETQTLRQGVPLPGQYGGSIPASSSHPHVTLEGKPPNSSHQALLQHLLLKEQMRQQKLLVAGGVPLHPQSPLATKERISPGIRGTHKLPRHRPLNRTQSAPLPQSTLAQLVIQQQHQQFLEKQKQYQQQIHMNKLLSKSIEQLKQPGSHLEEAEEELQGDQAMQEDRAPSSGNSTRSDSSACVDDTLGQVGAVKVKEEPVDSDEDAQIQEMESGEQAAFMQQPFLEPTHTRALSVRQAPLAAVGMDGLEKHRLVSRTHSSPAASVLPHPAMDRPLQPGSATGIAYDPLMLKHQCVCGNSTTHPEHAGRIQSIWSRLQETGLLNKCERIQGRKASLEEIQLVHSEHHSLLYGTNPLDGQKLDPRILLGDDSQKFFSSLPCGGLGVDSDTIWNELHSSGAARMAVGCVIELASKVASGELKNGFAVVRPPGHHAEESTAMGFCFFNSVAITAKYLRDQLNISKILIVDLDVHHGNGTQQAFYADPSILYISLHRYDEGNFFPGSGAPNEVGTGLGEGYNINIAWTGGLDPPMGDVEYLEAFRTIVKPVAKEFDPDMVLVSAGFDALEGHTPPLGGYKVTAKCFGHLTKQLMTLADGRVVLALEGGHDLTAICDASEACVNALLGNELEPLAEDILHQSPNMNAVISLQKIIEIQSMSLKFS

SMILES	Ki [1] [µM]	solubility at 24 h, 100 µM [2] [µM]	Ki (Histone deacetylase 2) [nM]	Ki (Histone deacetylase 9) [µM]
COc1ccc(Nc2c(NCCCCCC(=O)NO)c(=O)c2=O)cc1	> 10	3.3 (≈ 1.15 µg/mL)	3.1	> 10
CC(C)(CCCCC(=O)NO)Nc1c(Nc2ccc(C(F)(F)F)cc2)c(=O)c1=O	> 10	36 (≈ 14.9 µg/mL)	23	> 10
CC(Nc1c(NCCCCCC(=O)NO)c(=O)c1=O)C12CC3CC(CC(C3)C1)C2 (configuration not stated)	> 10	24 (≈ 9.68 µg/mL)	130	> 10
